Results published in patent publication US8614218B2, “Fused bicyclic pyrimidines” (Bayer Intellectual Property GmbH, priority 2007, dated 2013).

Key:
[1] = tested on: OvCAR3 cells; test: Cellular proliferation/cytotoxicity assay (Alamar Blue), OvCAR3; type: cell-based; conditions: Homo sapiens, OVCAR-3, 72 h, Alamar Blue (Resazurin), read-out: Anti-proliferative/Cytotoxic activity (OvCAR3 cells)
Description: (§1) Cellular Proliferation/Cytotoxicity Assay:
(§2) The anti-proliferative activity of the compounds as described herein, is evaluated using the OvCAR3, HCT116 and A549 cell lines and the Alamar Blue (Resazurin) cell viability assay (O'Brien et al. Eur J Biochem 267, 5421-5426, 2000). Resazurin is reduced to the fluorescent resorufin by cellular dehydrogenase activity, correlating with viable, proliferating cells. Test compounds are dissolved as 10 mM solutions in DMSO and subsequently diluted. Cells like HCT116 or A549 cells were seeded into 96 well flat bottom plates at a density of 10000 cells/well (OvCAR3 cells), 1000 cells/well (HCT116 cells) or 2000 cells/well (A549 cells) in a volume of 200 μl/well. 24 hours after seeding, 1 μl each of the compound dilutions are added into each well of the 96 well plates. Each compound dilution is tested as at least as duplicates. Wells containing untreated control cells were filled with 200 μl DMEM (Dulbecco's Modified Eagle Medium) containing 0.5 vol % v:v DMSO. The cells are then incubated with the substances for 72 h at 37° C. in a humidified atmosphere containing 5 vol % CO2. To determine the viability of the cells, 20 μl of a Resazurin solution (90 mg/l) are added. After 4 h incubation at 37° C., the fluorescence is measured by extinction at λ=544 nm and an emission of λ=590 nm (Wallac Victor2; Perkin Elmer, USA). For the calculation of the cell viability, the emission value from untreated cells is set as 100% viability and the fluorescence intensity of treated cells are set in relation to the values of untreated cells. Viabilities are expressed as % values. The corresponding IC50 values of the compounds for cytotoxic activity are determined from the concentration-effect curves by means of non-linear regression. The analysis of the data is performed using a biostatistical program (GraphPad Prism, USA).
(§3) Representative IC50 values for anti-proliferative/cytotoxic potency determined in the aforementioned assay follow from the following table, in which the numbers of the compound correspond to the numbers of the examples.

[2] = tested on: A549 cells; test: Cellular proliferation/cytotoxicity assay (Alamar Blue), A549; type: cell-based; conditions: Homo sapiens, 72 h, Alamar Blue (Resazurin), read-out: Anti-proliterative/Cytotoxic activity (A549 cells)
Description: as §1, §2, §3

| Structure (SMILES) | IC50 [1] [µM] | IC50 [2] [µM] |
| --- | --- | --- |
| c1ccc(-c2cn3ccnc3nc2-c2ccc(CN3CCC(c4nc(-c5ccccn5)n[nH]4)CC3)cc2)cc1 [Example 1, 6-phenyl-7-(4-{[4-(3-pyridin-2-yl-1,2,4-triazol-5-yl)piperidin-1-yl]methyl}phenyl)imidazo[1,2-a]pyrimidine] | < 10 | > 10 |
| c1ccc(-c2cn3ncnc3nc2-c2ccc(CN3CCC(c4n[nH]c(-c5ccccn5)n4)CC3)cc2)cc1 [Example 2, 6-phenyl-5-(4-{[4-(5-pyridin-2-yl-1,2,4-triazol-3-yl)piperidin-1-yl]methyl}phenyl)[1,2,4]triazolo[1,5-a]pyrimidine] | < 10 | > 10 |
| Cc1nc2nc(-c3ccc(CN4CCC(c5n[nH]c(-c6ccccn6)n5)CC4)cc3)c(-c3ccccc3)cn2n1 [Example 3, 2-methyl-6-phenyl-5-(4-{[4-(5-pyridin-2-yl-1,2,4-triazol-3-yl)piperidin-1-yl]methyl}phenyl)[1,2,4]triazolo[1,5-a]pyrimidine] | < 10 | < 10 |
| c1ccc(-c2cn3nc(C4CC4)nc3nc2-c2ccc(CN3CCC(c4n[nH]c(-c5ccccn5)n4)CC3)cc2)cc1 [Example 4, 2-cyclopropyl-6-phenyl-5-(4-{[4-(5-pyridin-2-yl-1,2,4-triazol-3-yl)piperidin-1-yl]methyl}phenyl)[1,2,4]triazolo[1,5-a]pyrimidine] | < 10 | < 10 |
| c1ccc(-c2cn3ccnc3nc2-c2ccc(CN3CCC(c4cc(-c5ccccn5)n[nH]4)CC3)cc2)cc1 [Example 5, 6-phenyl-7-(4-{[4-(3-pyridin-2-yl-pyrazol-5-yl)piperidin-1-yl]methyl}phenyl)imidazo[1,2-a]pyrimidine] | < 10 | < 10 |
| c1ccc(-c2cn3ccnc3nc2-c2ccc(CN3CCC(c4n[nH]c(-c5ccncc5)n4)CC3)cc2)cc1 [Example 6, 6-phenyl-7-(4-{[4-(5-pyridin-4-yl-1,2,4-triazol-3-yl)piperidin-1-yl]methyl}phenyl)imidazo[1,2-a]pyrimidine] | < 10 | < 10 |
| c1ccc(-c2cn3nc(C4CCC4)nc3nc2-c2ccc(CN3CCC(c4n[nH]c(-c5ccccn5)n4)CC3)cc2)cc1 [Example 7, 2-cyclobutyl-6-phenyl-5-(4-{[4-(5-pyridin-2-yl-1,2,4-triazol-3-yl)piperidin-1-yl]methyl}phenyl)[1,2,4]triazolo[1,5-a]pyrimidine] | < 10 | > 10 |
| N#Cc1cnc2nc(-c3ccc(CN4CCC(c5n[nH]c(-c6ccccn6)n5)CC4)cc3)c(-c3ccccc3)cn12 [Example 8, 6-phenyl-7-(4-{[4-(5-pyridin-2-yl-1,2,4-triazol-3-yl)piperidin-1-yl]methyl}phenyl)imidazo[1,2-a]pyrimidine-3-carbonitrile] | < 10 | > 10 |
| Fc1cnc2nc(-c3ccc(CN4CCC(c5n[nH]c(-c6ccccn6)n5)CC4)cc3)c(-c3ccccc3)cn12 [Example 9, 3-fluoro-6-phenyl-7-(4-{[4-(5-pyridin-2-yl-1H-1,2,4-triazol-3-yl)piperidin-1-yl]methyl}phenyl)imidazo[1,2-a]pyrimidine] | < 10 | > 10 |
| CNc1c(-c2ccccc2)c(-c2ccc(CN3CCC(c4n[nH]c(-c5ccccn5)n4)CC3)cc2)nc2nccn12 [Example 10, N-methyl-6-phenyl-7-(4-{[4-(5-pyridin-2-yl-1,2,4-triazol-3-yl)piperidin-1-yl]methyl}phenyl)imidazo[1,2-a]pyrimidin-5-amine] | < 10 | > 10 |
| Brc1cnc2nc(-c3ccc(CN4CCC(c5n[nH]c(-c6ccccn6)n5)CC4)cc3)c(-c3ccccc3)cn12 [Example 11, 3-bromo-6-phenyl-7-(4-{[4-(5-pyridin-2-yl-1,2,4-triazol-3-yl)piperidin-1-yl]methyl}phenyl)imidazo[1,2-a]pyrimidine] | < 10 | > 10 |
| Clc1cnc2nc(-c3ccc(CN4CCC(c5n[nH]c(-c6ccccn6)n5)CC4)cc3)c(-c3ccccc3)cn12 [Example 12, 3-chloro-6-phenyl-7-(4-{[4-(5-pyridin-2-yl-1,2,4-triazol-3-yl)piperidin-1-yl]methyl}phenyl)imidazo[1,2-a]pyrimidine] | < 10 | < 10 |
| C#Cc1cnc2nc(-c3ccc(CN4CCC(c5n[nH]c(-c6ccccn6)n5)CC4)cc3)c(-c3ccccc3)cn12 [Example 13, 3-ethynyl-6-phenyl-7-(4-{[4-(5-pyridin-2-yl-1,2,4-triazol-3-yl)piperidin-1-yl]methyl}phenyl)imidazo[1,2-a]pyrimidine] | < 10 | < 10 |
| Cc1cnc2nc(-c3ccc(CN4CCC(c5n[nH]c(-c6ccccn6)n5)CC4)cc3)c(-c3ccccc3)cn12 [Example 14, 3-methyl-6-phenyl-7-(4-{[4-(5-pyridin-2-yl-1,2,4-triazol-3-yl)piperidin-1-yl]methyl}phenyl)imidazo[1,2-a]pyrimidine] | < 10 | < 10 |
| C=Cc1cnc2nc(-c3ccc(CN4CCC(c5n[nH]c(-c6ccccn6)n5)CC4)cc3)c(-c3ccccc3)cn12 [Example 15, 6-phenyl-7-(4-{[4-(5-pyridin-2-yl-1,2,4-triazol-3-yl)piperidin-1-yl]methyl}phenyl)-3-vinylimidazo[1,2-a]pyrimidine] | < 10 | > 10 |
| CCOC(=O)c1cn2cc(-c3ccccc3)c(-c3ccc(CN4CCC(c5n[nH]c(-c6ccccn6)n5)CC4)cc3)nc2n1 [Example 16, Ethyl 6-phenyl-7-(4-{[4-(5-pyridin-2-yl-1,2,4-triazol-3-yl)piperidin-1-yl]methyl}phenyl)imidazo[1,2-a]pyrimidine-2-carboxylate] | < 10 | > 10 |
| CCc1cn2cc(-c3ccccc3)c(-c3ccc(CN4CCC(c5n[nH]c(-c6ccccn6)n5)CC4)cc3)nc2n1 [Example 17, 2-ethyl-6-phenyl-7-(4-{[4-(5-pyridin-2-yl-1,2,4-triazol-3-yl)piperidin-1-yl]methyl}phenyl)imidazo[1,2-a]pyrimidine] | < 10 | < 10 |
| c1ccc(-c2cn3ccnc3nc2-c2ccc(CN3CCC(c4n[nH]c(-c5ncccn5)n4)CC3)cc2)cc1 [Example 18, 6-phenyl-7-(4-{[4-(5-pyrimidin-2-yl-1,2,4-triazol-3-yl)piperidin-1-yl]methyl}phenyl)imidazo[1,2-a]pyrimidine] | < 10 | > 10 |
| O=C(O)c1cc2nc(-c3ccc(CN4CCC(c5n[nH]c(-c6ccccn6)n5)CC4)cc3)c(-c3ccccc3)cn2n1 [Example 79, 6-Phenyl-5-(4-{[4-(5-pyridin-2-yl-1H-1,2,4-triazol-3-yl)piperidin-1-yl]methyl}phenyl)pyrazolo[1,5-a]pyrimidine-2-carboxylic acid] | – | < 10 |
| Cc1nc2nc(-c3ccc(CN4CCC(c5nc(-c6ccco6)n[nH]5)CC4)cc3)c(-c3ccccc3)cn2n1 [Example 80, 5-[4-({4-[3-(2-furyl)-1H-1,2,4-triazol-5-yl]piperidin-1-yl}methyl)phenyl]-2-methyl-6-phenyl[1,2,4]triazolo[1,5-a]pyrimidine] | – | > 10 |
| c1ccc(-c2cn3nccc3nc2-c2ccc(CN3CCC(c4nc(-c5ccco5)n[nH]4)CC3)cc2)cc1 [Example 81, 5-[4-({4-[3-(2-furyl)-1H-1,2,4-triazol-5-yl]piperidin-1-yl}methyl)phenyl]-6-phenylpyrazolo[1,5-a]pyrimidine] | – | < 10 |
| c1ccc(-c2cn3ccnc3nc2-c2ccc(CN3CCC(c4nc(-c5ccco5)n[nH]4)CC3)cc2)cc1 [Example 82, 7-[4-({4-[3-(2-furyl)-1H-1,2,4-triazol-5-yl]piperidin-1-yl}methyl)phenyl]-6-phenylimidazo[1,2-a]pyrimidine] | – | > 10 |
| Cc1nc2nc(-c3ccc(CN4CCC(c5nc(-c6ccccc6)n[nH]5)CC4)cc3)c(-c3ccccc3)cn2n1 [Example 83, 2-methyl-6-phenyl-5-(4-{[4-(3-phenyl-1H-1,2,4-triazol-5-yl)piperidin-1-yl]methyl}phenyl)[1,2,4]triazolo[1,5-a]pyrimidine] | – | > 10 |
| COc1ccnc(-c2nc(C3CCN(Cc4ccc(-c5nc6nccn6cc5-c5ccccc5)cc4)CC3)n[nH]2)c1 [Example 84, 7-[4-({4-[5-(4-methoxypyridin-2-yl)-1H-1,2,4-triazol-3-yl]piperidin-1-yl}methyl)phenyl]-6-phenylimidazo[1,2-a]pyrimidine] | – | < 10 |
| c1ccc(-c2cn3ccnc3nc2-c2ccc(CN3CCC(c4n[nH]c(-c5ccccn5)n4)CC3)cc2)cc1 [Example 85, 6-phenyl-7-{4-[4-(5-pyridin-2-yl-1H-[1,2,4]triazol-3-yl)-piperidin-1-ylmethyl]-phenyl}-imidazo[1,2-a]pyrimidine] | – | > 10 |
